Results published in patent US7335770B2, “Triazine compounds and their analogs, compositions, and methods” (Reddy U5 Therapeutics, Inc., priority 2004, dated 2008).
pIC50: −log10 of the molar value. Where a name gives a salt, the structure may show the parent alone. Read-outs that look alike come from different tables or passages of the source.

Test system: smooth muscle cells (SMC)
Assay: anti-proliferation assay (perlecan)
Assay type: cell-based
Method: The activity scale used in Table 3 as follows (numbers are inclusive): “+++” represents IC50 of less than about 3 μM; “++” represents IC50 of between about 3 and about 7 μM; and “+” represents IC50 of greater than about 7 μM. In addition, compounds, to include compositions thereof, encompassed within the scope of structures Ia-XXIVa, respectively, or listed in Tables 1A and 1E may be likewise employed in this embodiment and/or aspect of the present invention. Further, any hydrogen atoms that are required for any atom to attain its usual valence in a structure presented in Table 3, whether a carbon atom or a heteroatom, should be inferred if it is not specifically indicated.
In addition to the above compounds, the following compounds and compositions comprising these compounds are active in an anti-proliferation assay (Perlecan). These compounds and compositions comprising these compounds are, among other things, generally useful for treating cardiovascular disorders associated with proliferative activity. Specifically, these compounds include N^2-cycloheptyl-N^4-(3-fluoro-4-methoxyphenyl)-N^6-methyl-N^6-(1-methyl-piperidin-4-yl)-1,3,5-triazine-2,4,6-triamine, and N^2-cycloheptyl-N^4-methyl-N^4-(1-methyl-piperidin-4-yl)-N^6-naphthalen-2-yl-1,3,5-triazine-2,4,6-triamine.
Methods for identifying the activity and screening for one or more of these compounds or molecules that induce synthesis of proteoglycans such as HSPG (heparan sulfate proteoglycan) are taught in U.S. patent application Ser. No. 10/091,357, which is incorporated herein in its entirety. Assays of effects of compounds in vivo are also taught in the incorporated references and are known to those skilled in the art. In general, methods comprise the addition of such compounds to assays and measurement of HSPG synthesis including, but not limited to, the production of syndecans, glypicans and perlecans, for example, syndecans 1, 2 and 4; and glypican-1. Other assays that can be used to determine the activity of the compounds of the present invention include other methods for measuring the induction of perlecan synthesis. For example, in one assay, perlecan is induced in cells by certain inducers, and the response is measured. Compounds of the present invention are then added to a replicate assay and the effect on perlecan induction is determined. Using such methods, compounds are determined that can either inhibit perlecan, elevate induction of perlecan, or that have no effect at all. Those compounds that are effective as therapeutic agents can then be used in animals, humans or patients with cellular proliferation disease aspects, such as vascular-associated diseases or SMC proliferation pathologies.
Another assay for determining compounds having SMC effects comprises adding a composition suspected of affecting SMC proliferation to smooth muscle cells in growth medium or serum-free medium. The change in cell proliferation can be measured by methods known to those skilled in the art, such as incorporation of labeled nucleotides into dividing cells' DNA, and compared to the proliferation of cells which are not treated with the compound. Other measurements include directly determining levels of HSPG synthesis by measuring the amount or change in amount of HSPG such as with ELISA for HSPGs, and compared to the amount of HSPG synthesis in untreated cells. Other indirect or direct measurement are contemplated by the present invention and are known to those skilled in the art. For example, such methods include, but are not limited to, measurement of RNA levels, RT-PCR, Northern blotting, Western blotting promoter-based assays to identify compounds that affect one or more proteoglycans and assays for proteoglycan biological activity shown by recombinant proteins, partially purified proteins, or lysates from cells expressing proteoglycans in the presence or absence of compounds of interest.

[1] = anti-proliferation assay (perlecan), class of IC50, read-out: Activity (note 1)
[2] = anti-proliferation assay (perlecan), some cells print no unit, read-out: Avg IC-50

SMILES	pIC50 [1]	pIC50 [2]	pIC50 (read-out: Activity (note 1))	pIC50 (read-out: Avg IC-50)	inhibition at 20 µM (read-out: inhibition at 20 μM (printed in the Avg IC-50 column)) [%]
COc1ccc(Nc2nc(NC3CCCCCC3)nc(OC3CCN(C)CC3)n2)cc1Cl [drawing 576, N-(3-Chloro-4-methoxy-phenyl)-N′-cyclo-heptyl-6-(1-methyl-piper-idin-4-yloxy)-[1,3,5]triazine-2,4-di-amine]	5.15 to 5.52	5.24			
COc1ccc(Nc2nc(NC3CCCCCC3)nc(OC3CCCN(C(C)=O)C3)n2)cc1Cl (centres unmarked) [drawing 577, 1-{3-[4-(3-Chloro-4-methoxy-phenyl-amino)-6-cyclo-heptylamino-[1,3,5]triazin-2-yl-oxy]-piperidin-1-yl}-ethanone]	5.15 to 5.52	5.19			
COc1ccc(Nc2nc(NC3CCCCCC3)nc(OC(C)C)n2)cc1Cl [drawing 578, N-(3-Chloro-4-methoxy-phenyl)-N′-cyclo-heptyl-6-isopropoxy-[1,3,5]tri-azine-2,4-diamine]	5.15 to 5.52	5.19			
COc1ccc(Nc2nc(NC3CCCCCC3)nc(Oc3ccc(C#CC(C)(C)O)cc3)n2)cc1Cl [drawing 579, 4-{4-[4-(3-Chloro-4-methoxy-phenyl-amino)-6-cyclo-heptylamino-[1,3,5]triazin-2-yl-oxy]-phenyl}-2-methyl-but-3-yn-2-ol]	> 5.52	5.72			
COc1ccc(Nc2nc(NC3CCCCCC3)nc(Oc3ccccc3C#CC(C)(C)O)n2)cc1Cl [drawing 580, 4-{2-[4-(3-Chloro-4-methoxy-phenyl-amino)-6-cyclo-heptylamino-[1,3,5]triazin-2-yl-oxy]-phenyl}-2-methyl-but-3-yn-2-ol]	> 5.52	5.55			
CCN1CCCC(Oc2nc(Nc3ccc(OC)c(Cl)c3)nc(NC3CCCCCC3)n2)C1 (centres unmarked) [drawing 581, N-(3-Chloro-4-methoxy-phenyl)-N′-cyclo-heptyl-6-(1-ethyl-piper-idin-3-yloxy)-[1,3,5]triazine-2,4-di-amine]	5.15 to 5.52	5.38			
COc1ccc(Nc2nc(NC3CCCCCC3)nc(Oc3ccc(C=O)cc3)n2)cc1Cl [drawing 582, 4-[4-(3-Chloro-4-methoxy-phenyl-amino)-6-cyclo-heptylamino-[1,3,5]triazin-2-yl-oxy]-benzaldehyde]	5.15 to 5.52	5.35			
COc1ccc(Nc2nc(NC3CCCCCC3)nc(Oc3ccc(/C=N\O)cc3)n2)cc1Cl [drawing 583, 4-[4-(3-Chloro-4-methoxy-phenyl-amino)-6-cyclo-heptylamino-[1,3,5]triazin-2-yl-oxy]-benzaldehyde oxime]	> 5.52	6.14			
COc1ccc(Nc2nc(NC(C)C)nc(Oc3ccc(C#CC(C)(C)O)cc3)n2)cc1Cl [drawing 584, 4-{4-[4-(3-Chloro-4-methoxy-phenyl-amino)-6-isopropylamino-[1,3,5]tri-azin-2-yloxy]-phenyl}-2-meth-yl-but-3-yn-2-ol]	5.15 to 5.52	5.47			
COc1ccc(Nc2nc(NC3CCCCCC3)nc(OCC3CCCO3)n2)cc1Cl (centres unmarked) [drawing 586, N-(3-Chloro-4-methoxy-phenyl)-N′-cyclo-heptyl-6-(tetrahydro-furan--2-ylmethoxy)-[1,3,5]tri-azine-2,4-diamine]	> 5.52	5.90			
COc1ccc(Nc2nc(NCC3CCCO3)nc(NC3CCCCCC3)n2)cc1Cl (centres unmarked) [drawing 587, N-(3-Chloro-4-methoxy-phenyl)-N′-cyclo-heptyl-N″-(tetrahydro-furan--2-ylmethyl)-[1,3,5]triazine-2,4,6-tri-amine]	> 5.52	5.87			
COc1ccc(Nc2nc(NCCNC(=O)OC(C)(C)C)nc(NC3CCCCCC3)n2)cc1Cl [drawing 588, {2-[4-(3-Chloro-4-methoxy-phenyl-amino)-6-cyclo-heptylamino-[1,3,5]triazin-2-yl-amino]-ethyl}-carbamic acidtert-butyl ester]	> 5.52	5.90			
COc1ccc(Nc2nc(NCCN)nc(NC3CCCCCC3)n2)cc1Cl [drawing 589, N-(2-Amino-ethyl)-N′-(3-Chloro-4-meth-oxy-phenyl)-N″-cyclo-heptyl-[1,3,5]triazine-2,4,6-triamine]	> 5.52	6.00			
CCN1CCCC1CNc1nc(Nc2ccc(C)c(F)c2)nc(NC2CCCCCC2)n1 (centres unmarked) [drawing 591, N-Cycloheptyl-N′-(1-ethyl-pyr-rolidin-2-ylmethyl)-N″-(3-fluoro--4-methyl-phenyl)-[1,3,5]tri-azine-2,4,6-triamine]	> 5.52	5.56			
Cc1ccc(Nc2nc(NC3CCCCCC3)nc(N(C)C3CCN(C)CC3)n2)cc1F [drawing 592, N-Cycloheptyl-N′-(3-fluoro-4-meth-yl-phenyl)-N″-methyl-N″-(1-meth-yl-piperidin-4-yl)-[1,3,5]tri-azine-2,4,6-triamine]	> 5.52	5.65			
CN1CCC(N(C)c2nc(Nc3cccc([N+](=O)[O-])c3)nc(NC3CCCCCC3)n2)CC1 [drawing 593, N-Cycloheptyl-N′-methyl-N′-(1-meth-yl-piperidin-4-yl)-N″-(3-ni-tro-phenyl)-[1,3,5]triazine-2,4,6-tri-amine]	> 5.52	6.04			
COc1ccc(Nc2nc(NCCCCCNC(=O)CCCCC3SCC4NC(=O)NC43)nc(NC3CCCCCC3)n2)cc1Cl (centres unmarked) [drawing 594, 5-(2-Oxo-hexahydro-thieno[3,4-d]imi-dazol-4-yl)-pentanoic acid {5-[4-(3-chloro-4-methoxy-phenyl-amino)-6-cyclo-heptylamino-[1,3,5]triazin-2-yl-amino]-pentyl}-amide]			> 5.52	5.66	
COc1ccc(Nc2nc(NC3CCCCCC3)nc(NC3CCN(C(=O)CCCCC4SCC5NC(=O)NC54)CC3)n2)cc1Cl (centres unmarked) [drawing 595]			> 5.52	6.15	
COc1ccc(Nc2nc(NNC(=O)CCCCC3SCC4NC(=O)NC43)nc(NC3CCCCCC3)n2)cc1Cl (centres unmarked) [drawing 596, 5-(2-Oxo-hexahydro-thieno[3,4-d]imi-dazol-4-yl)-pentanoic acidN′-[4-(3-chloro-4-methoxy-phenyl-amino)-6-cyclo-heptylamino-[1,3,5]triazine-2-yl]-hy-drazide]			5.15 to 5.52	5.30	
COc1ccc(Nc2nc(NCCNC(=O)CCCCC3SCC4NC(=O)NC43)nc(NC3CCCCCC3)n2)cc1Cl (centres unmarked) [drawing 597, of 5-(2-Oxo-hexahydro-thi-eno[3,4-d]imidazol-4-yl)-pen-tanoic acid {2,-[4-(3-chloro-4-meth-oxy-phenylamino)-6-cyclo-heptylamino-[1,3,5]triazin-2-yl-amino]-ethyl}-amide]	5.15 to 5.52	5.49			
CN1CCC(N(C)c2nc(Nc3cccc(F)c3)nc(NC3CCCCCC3)n2)CC1 [drawing 598, N-Cycloheptyl-N′-(3-fluoro-phe-nyl)-N″-methyl-N″-(1-methyl-piper-idin-4-yl)-[1,3,5]triazine-2,4,6-tri-amine]	> 5.52	5.91			
CCN1CCCC1CNc1nc(NC2CCCCCC2)nc(NC2CCC(O)CC2)n1 (centres unmarked) [drawing 599, 4-{4-Cycloheptylamino-6-[(1-eth-yl-pyrrolidin-2-ylmethyl)-amino]-[1,3,5]triazin-2-ylamino}-cyclo-hexanol]	5.15 to 5.52	5.39			
CCN1CCCC1CNc1nc(Nc2ccc(OC)c(F)c2)nc(N2CCN(CC(=O)N3CCCC3)CC2)n1 (centres unmarked) [drawing 600, 2-{4-[4-[(1-Ethyl-pyrrolidin-2-yl-methyl)-amino]-6-(3-fluoro-4-meth-oxy-phenylamino)-[1,3,5tri-azin-2-yl]-piperazin-1-yl}-1-pyr-rolidin-1-yl-ethanonedihydrogen chloride salt]					42
CCOc1nc(Nc2ccc(OC)c(F)c2)nc(NC2CCCCCC2)n1 [drawing 601, N-Cycloheptyl-6-ethoxy-N′-(3-fluoro--4-methoxy-phenyl)-[1,3,5]tri-azine-2,4-diamine]	5.15 to 5.52	5.35			
